What was measured:
[1] = 101 kPa, Liquid; for viscosity: Capillary tube (Ostwald / Ubbelohde) method
[2] = refractive index (Na D-line) (dimensionless); conditions: 101.33 kPa, Liquid, Standard Abbe refractometry
[3] = xn = mol fraction of the nth substance listed; conditions: 101 kPa, Liquid, x2 = 0; for viscosity: Capillary tube (Ostwald / Ubbelohde) method
[4] = refractive index (Na D-line) (dimensionless); xn = mol fraction of the nth substance listed; conditions: 101 kPa, Liquid, Standard Abbe refractometry, x2 = 0

CCCCCCOCCOCCO [2-(2-hexyloxyethoxy)ethanol]
[1]
Conditions	mass density [kg/m3]
283.15 K	942.09
288.15 K	938.05
293.15 K	934.06
303.15 K	926.08
313.15 K	918.17

CCCCOCCO [2-butoxyethan-1-ol]
Conditions	mass density, [1] [kg/m3]	refractive index, [2]	viscosity, [1] [mPa·s]
283.15 K	909.49	1.4226	4.46
293.15 K	901.18	1.4196	3.288
303.15 K	892.68	1.4157	2.499
313.15 K	884.21	1.41139	1.946
323.15 K	875.6	1.40701	1.543

CCCCOCCOCCO [3,6-dioxa-1-decanol]
Conditions	refractive index, 283.15 K	refractive index, 293.15 K	refractive index, 303.15 K	refractive index, 313.15 K	refractive index, 323.15 K	viscosity, 283.15 K [mPa·s]	viscosity, 293.15 K [mPa·s]	viscosity, 303.15 K [mPa·s]	viscosity, 313.15 K [mPa·s]	viscosity, 323.15 K [mPa·s]
[1]	–	–	–	–	–	8.301	5.86	4.323	3.295	2.58
[2]	1.4347	1.4312	1.42805	1.424	1.4194	–	–	–	–	–

[1], Vibrating tube method
Conditions	mass density [kg/m3]
283.15 K	962.57
293.15 K	954.16
303.15 K	945.74
313.15 K	937.35
323.15 K	928.85

O [water] + CCCCCCOCCOCCO
Conditions	mass density [kg/m3]
[3], 283.15 K	999.7

O [water] + CCCCOCCO
Conditions	mass density, [3] [kg/m3]	refractive index, [4]	viscosity, [3] [mPa·s]
283.15 K	999.7	1.33369	1.309
293.15 K	–	1.33299	1.003
303.15 K	–	1.33194	0.7983
313.15 K	–	1.33061	0.6543
323.15 K	988.04	1.32904	0.5492

O [water] + CCCCOCCOCCO
Conditions	refractive index, 283.15 K	refractive index, 293.15 K	refractive index, 303.15 K	refractive index, 313.15 K	refractive index, 323.15 K	viscosity, 283.15 K [mPa·s]	viscosity, 293.15 K [mPa·s]	viscosity, 303.15 K [mPa·s]	viscosity, 313.15 K [mPa·s]	viscosity, 323.15 K [mPa·s]
[3]	–	–	–	–	–	1.309	1.003	0.7983	0.6543	0.5492
[4]	1.33369	1.33299	1.33194	1.33061	1.32904	–	–	–	–	–

[3], Vibrating tube method
Conditions	mass density [kg/m3]
283.15 K	999.7
323.15 K	988.04

— the NIST ThermoML archive (doi:10.1021/je900478c)
